# Where “and” joins values, the source holds several entries; their conditions need not be identical. Equal values may be shown once.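 Assay format: 96-well plates, 48-hour exposure. GI50 marks 50% less growth. The concentration for full growth arrest is given as TGI.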
# Legend:
# Assay in all cases: DTP human tumour cell line panel, 48 h
# 786-0 renal = system: 786-0 renal
# BT-549 breast = system: BT-549 breast
# CCRF-CEM leukemia = system: CCRF-CEM leukemia
# COLO 205 colon = system: COLO 205 colon
# IGROV1 ovarian = system: IGROV1 ovarian
# MDA-N = system: MDA-N
# NCI-H226 lung = system: NCI-H226 lung
# NCI-H23 lung = system: NCI-H23 lung
# SR leukemia = system: SR leukemia
# SNB-78 CNS = system: SNB-78 CNS
SMILES,TGI (786-0 renal) [µM],TGI (BT-549 breast),TGI (CCRF-CEM leukemia),TGI (COLO 205 colon) [µM],TGI (IGROV1 ovarian),TGI (MDA-N),TGI (NCI-H226 lung) [µM],TGI (NCI-H23 lung) [µM],TGI (SR leukemia) [µM],TGI (SNB-78 CNS),GI50 (BT-549 breast),GI50 (IGROV1 ovarian),GI50 (MDA-N),GI50 (SNB-78 CNS) [µM],GI50 (CCRF-CEM leukemia) [µM],GI50 (NCI-H226 lung) [µM],GI50 (NCI-H23 lung) [µM],GI50 (COLO 205 colon) [µM],GI50 (SR leukemia) [µM]
O=C(O)C(Cc1ccccc1)N1C(=O)c2ccccc2C1=O (stereo not drawn),> 100,> 100 µM,65.1 µM,> 100,> 100 µM,> 100 µM,> 100,> 100,,,,,,,,,,,
N=C(N)C(N=Nc1ccccc1)C(=N)N (stereo not drawn),> 100,> 100 µM,40.6 µM,> 100,> 100 µM,61.2 µM,73.8,> 100,,,,,,,,,,,
COc1nc(C#CCCCC#N)nc(OC)n1,41.7,33.1 µM,,> 100,41.8 µM,56.1 µM,,31.4,> 100,,,,,,,,,,
O=C1CC(n2cccc2)c2cc(Br)sc21 (stereo not drawn),> 100,> 100 µM,60 µM,> 100,> 100 µM,> 100 µM,> 100,> 100,> 100,,,,,,,,,,
CC(=O)OCCC[C@@H]1C(=C(C)C)CCC2[C@@]1(C)CC[C@@]1(C)C[C@](C)(CCC=C(C)C)CC[C@]21C (stereo partly drawn),> 100,> 100 µM,> 100 µM,> 100,> 100 µM,> 100 µM,> 100,> 100,,,,,,,,,,,
CC1=CC[C@@]2(C)[C@@H]([C@@H]1C)[C@H]1CC[C@@H]3[C@@]4(C)CC[C@H](O)C(C)(C)[C@@H]4CC[C@@]3(C)[C@]1(C)C[C@@H]2O,42.2,> 64.3 µM,> 53.1 µM,32.1,42.2 µM,> 55.4 µM,> 100,> 55.1,7.34,,,,,,,,,,
C=CCOCCCC(=O)C(=[N+]=[N-])C(=O)OC,> 100,,> 100 µM,> 100,> 100 µM,,> 100,> 100,> 100,> 100 µM,,,,,,,,,
OC(c1ccc(-c2ccccc2)cc1)(c1ccc(-c2ccccc2)cc1)c1ccc(-c2ccccc2)cc1,> 100,> 100 µM,,> 100,> 100 µM,> 100 µM,,> 100,> 100,,,,,,,,,,
OC1C=C2C3CN(Cc4cc5c(cc43)OCO5)[C@H]2C[C@@H]1O (stereo partly drawn),36.3,14.7 µM,7.04 µM,> 100,> 100 µM,37.3 µM,> 100,67.4,> 100,,,,,,,,,,
O=C1CS(=O)(=O)C(c2cccc(Oc3ccccc3)c2)N1c1cccc(Cl)c1Cl (stereo not drawn),32.7,,> 100 µM,67.8,,49.7 µM,> 100,,52,,,,,,,,,,
O=C(NN1C(=O)/C(=C/c2ccc(Cl)cc2)N=C1c1ccccc1)c1c(Cl)c(Cl)c(Cl)c(Cl)c1-c1nc2ccccc2[nH]1,55.9,32.8 µM,> 100 µM,> 100,> 100 µM,31.5 µM,68.2,34.9,27.1,,,,,,,,,,
O=C1c2ccccc2-c2ccc(O)cc21,> 100,,,58.4,35.9 µM,,> 100,38.5,29.7,,,,,,,,,,
O=C1CCC(NC(=O)Cc2ccc(O)cc2)C(=O)N1 (stereo not drawn),,,,> 2500,> 2500 µM,,> 2500,> 2500,,> 2500 µM,,,,,,,,,
CN(C)CCNc1c([N+](=O)[O-])cc2c3c(cccc13)C(=O)N(CCN(C)C)C2=O,,,> 100 µM,2.71,8.17 µM,,> 100,3.89,,7.21 µM,,,,,,,,,
N#CCc1[nH]nc2nc(SCc3ccccc3)nc(N3CCCCC3)c12,31.8,34.1 µM,33.8 µM,34.7,,,,33.1,,,,,,,,,,,
CCN(CC)/C(=C\Cl)Nc1ccccn1,> 100,,> 100 µM,> 100,> 100 µM,,> 100,> 100,,> 100 µM,,,,,,,,,
S=C(NCCCCCCNC(=S)Nc1c2ccccc2nc2ccccc12)Nc1c2ccccc2nc2ccccc12,,,> 100 µM,> 100,> 100 µM,,> 30.1,> 100,,> 100 µM,,,,,,,,,

SMILES,TGI (786-0 renal) [µM],TGI (BT-549 breast),TGI (CCRF-CEM leukemia),TGI (COLO 205 colon) [µM],TGI (IGROV1 ovarian),TGI (MDA-N),TGI (NCI-H226 lung) [µM],TGI (NCI-H23 lung) [µM],TGI (SR leukemia) [µM],TGI (SNB-78 CNS),GI50 (BT-549 breast),GI50 (IGROV1 ovarian),GI50 (MDA-N),GI50 (SNB-78 CNS) [µM],GI50 (CCRF-CEM leukemia) [µM],GI50 (NCI-H226 lung) [µM],GI50 (NCI-H23 lung) [µM],GI50 (COLO 205 colon) [µM],GI50 (SR leukemia) [µM]
Cc1cc(C)n(C(=O)C(C)Sc2nnc(SC(C)C(=O)n3nc(C)cc3C)s2)n1 (stereo not drawn),> 100,> 100 µM,> 100 µM,> 100,> 100 µM,> 100 µM,> 100,> 100,> 100,,,,,,,,,,
C[N+]1(C)C2CCC1CC(OC(=O)C(CO)c1ccccc1)C2 (stereo not drawn),> 100,> 100 µM,> 100 µM,> 100,> 100 µM,> 100 µM,> 100,> 100,> 100,,,,,,,,,,
Cc1nc(Cl)c(C)c(Cl)n1,> 100,> 100 µM,> 100 µM,> 100,34.5 µM,> 100 µM,> 100,> 100,71.8,,,,,,,,,,
Cc1c(N)nc([C@H](CC(N)=O)NC[C@H](N)C(N)=O)nc1C(=O)N[C@H](C(=O)N[C@H](C)[C@@H](O)[C@H](C)C(=O)N[C@H](C(=O)NCCc1nc(-c2nc(C(=O)NCCC[S+](C)C)cs2)cs1)[C@@H](C)O)C(OC1OC(CO)C(O)C(O)C1OC1OC(CO)C(O)C(OC(N)=O)C1O)c1cnc[nH]1 (stereo partly drawn),,23.8 µM and 25 µM and > 100 µM,25 µM [middle of 4 runs],,22.9 µM and 29 µM and 33.6 µM,24.4 µM and 25 µM and > 100 µM,,,,24.9 µM and > 29 µM,6.48 µM and 7.49 µM,6.89 µM and 1.22 µM,8.86 µM and 23.8 µM,> 29,,,,,
Cc1c2c(cc3c1[nH]c1ccccc13)C(c1ccc(F)cc1)=NCC2,,,7.2 µM,2.15,3.73 µM,,4.64,7.56,,9.03 µM,,,,,,,,,
CN1CCN(CCCOc2ccc3ncnc(Nc4ccc(Oc5cccc(C(F)(F)F)c5)c(Cl)c4)c3c2)CC1,,,7.46 µM,,2.43 µM,,52,4.04,,,,0.908 µM,,,2.32,21,1.81,,
CC(=O)C1(c2ccccc2)CCCN(C)CC1 (stereo not drawn),,> 100 µM,> 100 µM,> 100,> 100 µM,,> 100,> 100,> 100,,,,,,,,,,
CCn1cc(C(=O)O)c(=O)c2cc(F)c(N3CCN(Cn4c(O)c(N=NC(=O)c5ccncc5)c5cc(Cl)ccc54)CC3)cc21,> 100,> 100 µM,,> 100,61.6 µM,> 100 µM,> 100,> 100,31,,,,,,,,,,
COc1ccc(/C=c2/[nH]c(=O)/c(=C\c3ccc(OCc4ccccc4)cn3)[nH]c2=O)cc1,> 100,> 100 µM,> 100 µM,> 100,,> 100 µM,> 100,> 100,> 100,,,,,,,,,,
O=C1c2scnc2-c2nccc3c2c1nc1ccccc13,,2.94 µM,> 100 µM,2.68,> 100 µM,,,1.2,> 100,,,,,,,,,,
Cc1c(Cl)c(=O)oc2cc(OCC(=O)c3ccccc3)ccc12,,> 100 µM,> 100 µM,> 100,> 100 µM,> 100 µM,> 100,> 100,10.7,,,,,,,,,,
COC1(OC)C[C@H](C)[C@@]23O[C@]24c2cc(O)c5c(c2N[C@H]3C#C/C=C\C#C[C@]14O)C(=O)c1ccccc1C5=O,0.0245,0.125 µM,0.00572 µM and 0.0539 µM,0.0369,0.16 µM,0.139 µM and 0.108 µM,0.00755,0.0229,,,,,0.00836 µM,,0.005,,,,
O=c1c2c([nH]c3nccn13)CCCC2,,,> 10 µM,> 10,> 10 µM,,> 10,> 10,> 10,,,,,,,,,,
O=C1OC(c2ccccc2)=N/C1=C/c1cccs1,,,75.1 µM,,> 100 µM,,> 100,,> 100,,,,,,,,,,
O=C1CC(N2C(=O)/C(=C/C(Cl)=C\c3ccc([N+](=O)[O-])cc3)SC2=S)C(=O)N1c1ccc(Cl)cc1 (stereo not drawn),,3.74 µM,12.4 µM,3.76,3.26 µM,,4.65,4.31,14.2,,1.75 µM,1.03 µM,,,0.486,1.92,1.64,1.4,0.544
CCCCC1Cc2cc(OC)ccc2-c2nc3cc(OC)ccc3n21 (stereo not drawn) (tested in a mixture with another compound),27.8,33.3 µM,34.1 µM,18.7,23.1 µM,27 µM,28.1,27.8,32.1,,,,,,,,,,

# Reference: PubChem BioAssay (NCI)
